Data taken from PubChem BioAssay (NCI).
“And” between values parts separate entries of the source, which are not always exact repeats. Equal values may be shown once.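 Following 48 hours of exposure in 96-well plates, responses at five concentrations were used to interpolate endpoints linearly. GI50 = concentration required for 50% inhibition of growth. TGI: concentration producing complete growth inhibition.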

Key:
Test in all cases: DTP human tumour cell line panel, 48 h; in the data active = GI50 below about 0.43 µM; inactive = the rest
K-562 leukemia = tested on: K-562 leukemia
NCI/ADR-RES ovarian = tested on: NCI/ADR-RES ovarian
KM12 colon = tested on: KM12 colon
PC-3 prostate = tested on: PC-3 prostate
SF-268 CNS = tested on: SF-268 CNS
EKVX NSCLC = tested on: EKVX NSCLC
NCI-H23 lung = tested on: NCI-H23 lung
SK-MEL-2 melanoma = tested on: SK-MEL-2 melanoma
M14 melanoma = tested on: M14 melanoma
SK-MEL-28 melanoma = tested on: SK-MEL-28 melanoma

COc1ccc(-c2nnc(N3CCN(C(=O)CN4CCN(c5ccccc5)CC4)CC3)nc2-c2ccc(OC)cc2)cc1
55.8 µM: TGI (SK-MEL-2 melanoma)
> 100 µM: TGI (K-562 leukemia) | TGI (NCI/ADR-RES ovarian) | TGI (KM12 colon) | TGI (PC-3 prostate) | TGI (SF-268 CNS) | TGI (EKVX NSCLC) | TGI (NCI-H23 lung) | TGI (M14 melanoma) | TGI (SK-MEL-28 melanoma)
inactive: GI50 (K-562 leukemia) 2.53 µM | GI50 (NCI/ADR-RES ovarian) 5.15 µM | GI50 (KM12 colon) 3.67 µM | GI50 (PC-3 prostate) 3.83 µM | GI50 (SF-268 CNS) 83.4 µM | GI50 (EKVX NSCLC) 4.91 µM | GI50 (NCI-H23 lung) 6.92 µM | GI50 (SK-MEL-2 melanoma) 9.13 µM | GI50 (M14 melanoma) 4.84 µM | GI50 (SK-MEL-28 melanoma) 14.3 µM

C/C(=N\NC(=S)N1CCCCCC1)c1ccccn1
4.19 µM: TGI (SF-268 CNS)
1.92 µM and 4.53 µM: TGI (K-562 leukemia)
0.517 µM and 5.16 µM: TGI (KM12 colon)
0.295 µM: TGI (SK-MEL-28 melanoma)
3.32 µM: TGI (NCI/ADR-RES ovarian)
0.569 µM and 1.83 µM: TGI (SK-MEL-2 melanoma)
active: GI50 (KM12 colon) 0.0688 µM | GI50 (PC-3 prostate) 0.183 µM | GI50 (EKVX NSCLC) 0.053 µM | GI50 (NCI-H23 lung) < 0.0182 µM | GI50 (SK-MEL-2 melanoma) 0.0694 µM | GI50 (M14 melanoma) 0.0103 µM
1.84 µM and 3.34 µM: TGI (EKVX NSCLC)
2.9 µM and 2.61 µM: TGI (PC-3 prostate)
1.56 µM and 0.74 µM: TGI (M14 melanoma)
5.85 µM and 6.33 µM: TGI (NCI-H23 lung)

CC12CCC3c4ccc(O)cc4CCC3C1C/C(=N\O)C2O (stereo unspecified)
> 100 µM: TGI (K-562 leukemia) | TGI (NCI/ADR-RES ovarian) | TGI (KM12 colon) | TGI (PC-3 prostate) | TGI (SF-268 CNS) | TGI (EKVX NSCLC) | TGI (NCI-H23 lung) | TGI (SK-MEL-2 melanoma) | TGI (M14 melanoma) | TGI (SK-MEL-28 melanoma)
